Data as given in patent US8669361B2, “Pyrazol-4-yl-heterocyclyl-carboxamide compounds and methods of use” (Genentech, Inc., priority 2010, dated 2014).

Key:
[1] = system: MM1.S (multiple myeloma) cells; assay: In vitro cell proliferation potency assay, Cell Titer Glo (Example 902); format: cell-based; conditions: Homo sapiens, incubated for 72 hours, read-out: Prolif MM1S ATP (EC50)
Experimental: (§1) BaF3 parental line was obtained from the DSMZ repository. BaF3 lines transfected with PIM 1 or PIM2 were generated. Mouse IL-3 was purchased from R&D Systems. G418 was purchased from Clontech. Media for BaF3 parental line contained RPMI, 10% FBS, 2 mM L-Glutamine, 2 ng/mL mIL-3. Media for BaF3 PIM1 & 2 lines contained RPMI, 10% FBS, 2 mM L-Glutamine, […]. Media for MM1.S (multiple myeloma cells) line contained RPMI, 10% FBS, 2 mM L-Glutamine.
(§2) BaF3, a murine interleukin-3 dependent pro-B cell line, parental cells, BaF3 PIM1 cells, BaF3 PIM2 cells, and MM1.S (multiple myeloma) cells were seeded at 2 k/well, 5 k/well, 5 k/well, and 10 k/well respectively, in a 384-well plate, at 45 μL/well. Test compound was added at 5 μL/well. BaF3 cells (parental and transfected) were incubated overnight, while MM1.S cells were incubated for 72 hours at 37° C., 5% CO2. Cell Titer Glo Reagent (Promega) was added at 50 μL/well, the plates were incubated for 30 minutes, and their luminescence read on an HT Analyst. IC50/EC50 values for the test compound were calculated.

PIM2 = PIM2 (Homo sapiens (Human), UniProt Q9P1W9); assay: Pim kinase binding activity, Caliper LC3000 microfluidic peptide phosphorylation assay (Example 901); format: biochemical; conditions: 50 pM PIM2, 1 μM FAM-peptide, 10 μM ATP, 90 minutes at room temperature; read-out: PIM2 LC3K (KI)
Experimental: (§3) A fluorescent-labeled Pim-specific peptide substrate, was custom synthesized by American Peptide Company (Sunnyvale, Calif.). Reaction Buffer contained 10 mM HEPES, pH 7.2, 10 mM MgCl2, 0.01% Tween 20, 2 mM DTT. Termination Buffer contained 190 mM HEPES, pH 7.2, 0.015% Brij-35, 0.2% Coating Reagent 3 (Caliper Life Sciences, Hopkinton, Mass.), 20 mM EDTA. Separation Buffer contained 100 mM HEPES, pH 7.2, 0.015% Brij-35, 0.1% Coating Reagent 3, 1:200 Coating Reagent 8 (Caliper Life Sciences, Hopkinton, Mass.), 10 mM EDTA and 5% DMSO.
PIM reactions were carried out in a final volume of 10 μL per well in a 384-well plate. […] After 90 minutes of incubation at room temperature, the phosphorylation reaction was stopped by the addition of 10 μL Termination Buffer. The product and substrate in each independent reaction were separated on a 12-sipper microfluidic chip (Caliper Life Sciences, Hopkinton, Mass.) run on a Caliper LC3000® (Caliper Life Sciences, Hopkinton, Mass.). The separation of product and substrate was optimized by choosing voltages and pressure using Caliper's Optimizer software (Hopkinton, Mass.). The separation conditions used a downstream voltage of −500V, an upstream voltage of −2150V, and a screening pressure of −1.2 psi. […] Substrate conversion was calculated from the electropherogram using HTS Well Analyzer software (Caliper Life Sciences, Hopkinton, Mass.). Ki values for the test compound were calculated.

BaF3 parental cells = assay: In vitro cell proliferation potency assay, Cell Titer Glo (Example 902); format: cell-based, murine; conditions: Mus musculus; BaF3 parental line, medium with 2 ng/mL mIL-3, incubated overnight; read-out: Prolif BaF3 IL3 (IC50)
Experimental: as §1, §2

BaF3 PIM1 cells = assay: as above; format: cell-based, murine; conditions: Mus musculus; BaF3 line transfected with PIM1, incubated overnight; read-out: Prolif BaF3 PIM1 (IC50)
Experimental: as §1, §2

PIM1 = PIM1 (Homo sapiens (Human), UniProt P11309); assay: Pim kinase binding activity, Caliper LC3000 microfluidic peptide phosphorylation assay (Example 901); format: biochemical; conditions: 20 pM PIM1, 1 μM FAM-peptide, 10 μM ATP, 90 minutes at room temperature; read-out: PIM1 LC3K (KI)
Experimental: as §3, with “PIM-1, -2, and -3 enzymes were generated as fusion proteins expressed in bacteria and purified by IMAC column chromatography (Sun, X., Chiu, J. F., and He, Q. Y. (2005) Expert Rev. Proteomics, 2:649-657). A fluorescent-labeled” for “A fluorescent-labeled”
(§4) PIM reactions were carried out in a final volume of 10 μL per well in a 384-well plate. A standard enzymatic reaction, initiated by the addition of 5 μL 2×ATP and test compound to 5 μL of 2× enzyme and FAM-peptide, contained 20 pM PIM1, 50 pM PIM2, or 55 pM PIM3, 1 μM FAM-peptide, and 10 μM ATP, in Reaction Buffer. After 90 minutes of incubation at room temperature, the phosphorylation reaction was stopped by the addition of 10 μL Termination Buffer. The product and substrate in each independent reaction were separated on a 12-sipper microfluidic chip (Caliper Life Sciences, Hopkinton, Mass.) run on a Caliper LC3000® (Caliper Life Sciences, Hopkinton, Mass.). The separation of product and substrate was optimized by choosing voltages and pressure using Caliper's Optimizer software (Hopkinton, Mass.). The separation conditions used a downstream voltage of −500V, an upstream voltage of −2150V, and a screening pressure of −1.2 psi. The product and substrate fluorophore were excited at 488 nm and detected at 530 nm. Substrate conversion was calculated from the electropherogram using HTS Well Analyzer software (Caliper Life Sciences, Hopkinton, Mass.). Ki values for the test compound were calculated.

PIM3 = PIM3 (Homo sapiens (Human), UniProt Q86V86); assay: as above; format: biochemical; conditions: 55 pM PIM3, 1 μM FAM-peptide, 10 μM ATP, 90 minutes at room temperature; read-out: PIM3 LC3K (KI)
Experimental: as §3, with “PIM-1, -2, and -3 enzymes were generated as fusion proteins expressed in bacteria and purified by IMAC column chromatography (Sun, X., Chiu, J. F., and He, Q. Y. (2005) Expert Rev. Proteomics, 2:649-657). A fluorescent-labeled” for “A fluorescent-labeled”
as §4

Chain of PIM2 (Q9P1W9 whole entry): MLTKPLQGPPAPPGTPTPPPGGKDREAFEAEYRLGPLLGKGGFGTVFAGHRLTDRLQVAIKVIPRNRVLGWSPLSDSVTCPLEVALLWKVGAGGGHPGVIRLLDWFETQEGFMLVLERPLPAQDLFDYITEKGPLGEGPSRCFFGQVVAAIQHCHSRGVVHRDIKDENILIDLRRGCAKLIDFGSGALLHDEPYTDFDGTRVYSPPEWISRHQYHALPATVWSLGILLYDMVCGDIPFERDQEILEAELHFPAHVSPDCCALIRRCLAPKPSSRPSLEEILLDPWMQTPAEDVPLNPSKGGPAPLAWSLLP
Chain of PIM1 (P11309 whole entry, the tested form may be a part): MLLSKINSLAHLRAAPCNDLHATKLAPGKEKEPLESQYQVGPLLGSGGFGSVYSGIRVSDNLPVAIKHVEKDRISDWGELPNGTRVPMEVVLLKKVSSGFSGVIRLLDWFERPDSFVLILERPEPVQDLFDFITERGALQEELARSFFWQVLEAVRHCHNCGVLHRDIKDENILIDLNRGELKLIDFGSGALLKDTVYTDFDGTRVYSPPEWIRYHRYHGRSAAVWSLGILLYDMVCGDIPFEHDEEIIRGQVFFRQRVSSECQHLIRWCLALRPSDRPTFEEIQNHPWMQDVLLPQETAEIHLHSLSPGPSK

EC50 [1] [nM] | Ki (PIM2) [nM] | IC50 (BaF3 PIM1 cells) [nM] | Ki (PIM1) [nM] | Ki (PIM3) [nM] | Structure (SMILES) | IC50 (BaF3 parental cells) [nM]
9100 | 55.1 | 7300 | 6.5 | 4.89 | Nc1sc(-c2c(F)cccc2F)nc1C(=O)Nc1cn[nH]c1N1CCC[C@H](N)C1 [Example 103, (S)-5-amino-N-(5-(3-aminopiperidin-1-yl)-1H-pyrazol-4-yl)-2-(2,6-difluorophenyl)thiazole-4-carboxamide] | 10600
4200 |  | 3800 |  |  | Cn1ncc(NC(=O)c2nc(-c3c(F)cccc3F)sc2N)c1N1CCC[C@H](N)C1 [Example 106, (S)-5-amino-N-(5-(3-aminopiperidin-1-yl)-1-methyl-1H-pyrazol-4-yl)-2-(2,6-difluorophenyl)thiazole-4-carboxamide] | 6600
8200 |  | 615 |  |  | Cn1ncc(NC(=O)c2nc(-c3c(F)cccc3F)sc2N)c1N1CCC(N)CC1 [Example 108, 5-amino-N-(5-(4-aminopiperidin-1-yl)-1-methyl-1H-pyrazol-4-yl)-2-(2,6-difluorophenyl)thiazole-4-carboxamide] | 4300
 | 46.1 | 4500 | 1.14 | 1.08 | Cn1ncc(NC(=O)c2nc(-c3c(F)cccc3F)sc2N)c1OCC1CCNCC1 [Example 115, 5-amino-2-(2,6-difluorophenyl)-N-(1-methyl-5-(piperidin-4-ylmethoxy)-1H-pyrazol-4-yl)thiazole-4-carboxamide] | 6200
 | 10.6 | 660 | 0.506 | 0.344 | Cn1ncc(NC(=O)c2nc(-c3c(F)cccc3F)sc2N)c1N1CC[C@H](CN)C1 [Example 135, (R)-5-amino-N-(5-(3-(aminomethyl)pyrrolidin-1-yl)-1-methyl-1H-pyrazol-4-yl)-2-(2,6-difluorophenyl)thiazole-4-carboxamide] | 9300
 |  | 634 |  |  | Cn1ncc(NC(=O)c2nc(-c3ccccc3F)ccc2N)c1N1CC[C@H](CN)C1 [Example 136, (R)-3-amino-N-(5-(3-(aminomethyl)pyrrolidin-1-yl)-1-methyl-1H-pyrazol-4-yl)-6-(2-fluorophenyl)picolinamide] | 5900
 |  | 377 |  |  | Cn1ncc(NC(=O)c2nc(-c3ccccc3F)cnc2N)c1N1CCC[C@H](N)CC1 [Example 143, (S)-3-amino-N-(5-(4-aminoazepan-1-yl)-1-methyl-1H-pyrazol-4-yl)-6-(2-fluorophenyl)pyrazine-2-carboxamide] | 1100

Continued, molecule first:

Structure (SMILES) | EC50 [1] [nM] | Ki (PIM2) [nM] | IC50 (BaF3 PIM1 cells) [nM] | Ki (PIM1) [nM] | Ki (PIM3) [nM] | IC50 (BaF3 parental cells) [nM]
Cn1ncc(NC(=O)c2nc(-c3ccccc3F)ccc2N)c1N1CCC(N)CC1 [Example 110, 3-amino-N-(5-(4-aminopiperidin-1-yl)-1-methyl-1H-pyrazol-4-yl)-6-(2-fluorophenyl)picolinamide] | 16100 |  | 1500 |  |  | 12000
Cn1ncc(NC(=O)c2nc(-c3ccccc3F)ccc2N)c1N1CCC[C@H](N)C1 [Example 111, (S)-3-amino-N-(5-(3-aminopiperidin-1-yl)-1-methyl-1H-pyrazol-4-yl)-6-(2-fluorophenyl)picolinamide] | 7100 |  | 4200 |  |  | 13200
Cn1ncc(NC(=O)c2nc(-c3ccccc3F)ccc2N)c1N1CCCC(N)CC1 (stereo not drawn) [Example 114, 3-amino-N-(5-(4-aminoazepan-1-yl)-1-methyl-1H-pyrazol-4-yl)-6-(2-fluorophenyl)picolinamide] |  | 1.65 | 2300 | 0.115 | 0.159 | 5500
Cn1ncc(NC(=O)c2nc(-c3ccccc3F)cnc2N)c1N1CCC[C@H](N)C1 [Example 119, (S)-3-amino-N-(5-(3-aminopiperidin-1-yl)-1-methyl-1H-pyrazol-4-yl)-6-(2-fluorophenyl)pyrazine-2-carboxamide] |  | 2.13 | 1300 |  | 0.305 | 5200
Cn1ncc(NC(=O)c2nc(-c3c(F)cccc3F)sc2N)c1OC1CCNCC1 [Example 120, 5-amino-2-(2,6-difluorophenyl)-N-(1-methyl-5-(piperidin-4-yloxy)-1H-pyrazol-4-yl)thiazole-4-carboxamide] |  |  | 7800 | 1.97 | 1.1 | 25000
Cn1ncc(NC(=O)c2nc(-c3ccccc3F)cnc2N)c1N1CCC(N)CC1 [Example 122, 3-amino-N-(5-(4-aminopiperidin-1-yl)-1-methyl-1H-pyrazol-4-yl)-6-(2-fluorophenyl)pyrazine-2-carboxamide] |  | 14.7 | 1100 | 0.281 | 0.962 | 11900
Cn1ncc(NC(=O)c2nc(-c3ccccc3F)ccc2N)c1N1CCC[C@H](CN)C1 [Example 129, (R)-3-amino-N-(5-(3-(aminomethyl)piperidin-1-yl)-1-methyl-1H-pyrazol-4-yl)-6-(2-fluorophenyl)picolinamide] |  | 10.2 | 5100 | 0.343 | 1.33 | 21500
Cn1ncc(NC(=O)c2nc(-c3ccccc3F)ccc2N)c1N1CC[C@@H](CN)C1 [Example 134, (S)-3-amino-N-(5-(3-(aminomethyl)pyrrolidin-1-yl)-1-methyl-1H-pyrazol-4-yl)-6-(2-fluorophenyl)picolinamide] |  |  | 1400 |  |  | 7800
Cn1ncc(NC(=O)c2nc(-c3ccccc3F)cnc2N)c1N1CCC[C@@H](N)CC1 [Example 141, (R)-3-amino-N-(5-(4-aminoazepan-1-yl)-1-methyl-1H-pyrazol-4-yl)-6-(2-fluorophenyl)pyrazine-2-carboxamide] |  | 3.52 | 219 |  | 0.295 | 1100
Cn1ncc(NC(=O)c2nc(-c3ccccc3F)ccc2N)c1N1CCC[C@@H](N)CC1 [Example 145, (R)-3-amino-N-(5-(4-aminoazepan-1-yl)-1-methyl-1H-pyrazol-4-yl)-6-(2-fluorophenyl)picolinamide] |  |  | 1000 |  |  | 3800
